# Assays:
# BTK-WT = biological target: T1, BTK-WT (Homo sapiens, UniProt Q06187); experiment: Btk in vitro inhibitory activity (one of Method A TR-FRET, Method B electrophoretic mobility shift, Method C radiometric filter binding); assay type: biochemical; conditions: D-compounds panel data; read-out: IC50 BTK-WT
# T1 construct: purified from insect cells as a full-length construct containing an N-terminal 6X-His tag; His6 (N); made in house; host or cells: insect cells (baculovirus Sf21 in Method B)
# T1 sequence (Q06187 whole entry): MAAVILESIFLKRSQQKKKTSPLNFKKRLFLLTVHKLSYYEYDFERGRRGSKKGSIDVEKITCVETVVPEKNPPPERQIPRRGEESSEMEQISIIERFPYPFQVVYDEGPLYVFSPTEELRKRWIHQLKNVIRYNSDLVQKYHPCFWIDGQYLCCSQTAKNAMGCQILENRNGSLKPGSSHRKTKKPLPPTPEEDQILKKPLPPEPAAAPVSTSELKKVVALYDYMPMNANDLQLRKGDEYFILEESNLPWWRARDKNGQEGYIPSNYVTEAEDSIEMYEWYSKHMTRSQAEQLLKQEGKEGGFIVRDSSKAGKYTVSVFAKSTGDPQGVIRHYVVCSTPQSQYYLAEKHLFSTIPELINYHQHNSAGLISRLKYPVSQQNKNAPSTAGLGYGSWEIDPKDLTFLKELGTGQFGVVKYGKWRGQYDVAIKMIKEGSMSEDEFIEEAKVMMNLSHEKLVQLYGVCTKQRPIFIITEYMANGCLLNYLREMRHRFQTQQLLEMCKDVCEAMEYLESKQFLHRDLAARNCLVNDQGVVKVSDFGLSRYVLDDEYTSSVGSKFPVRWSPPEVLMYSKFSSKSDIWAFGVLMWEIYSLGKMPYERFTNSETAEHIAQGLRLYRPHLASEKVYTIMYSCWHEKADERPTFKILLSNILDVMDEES
# LCK = LCK (Homo sapiens, UniProt P06239); experiment: Inhibition of a panel of kinases, in vitro HotSpot kinase assay: LCK; assay type: biochemical; conditions: D-compounds panel data; 1 μM ATP; read-out: IC50 LCK
# Chain of LCK (P06239 whole entry): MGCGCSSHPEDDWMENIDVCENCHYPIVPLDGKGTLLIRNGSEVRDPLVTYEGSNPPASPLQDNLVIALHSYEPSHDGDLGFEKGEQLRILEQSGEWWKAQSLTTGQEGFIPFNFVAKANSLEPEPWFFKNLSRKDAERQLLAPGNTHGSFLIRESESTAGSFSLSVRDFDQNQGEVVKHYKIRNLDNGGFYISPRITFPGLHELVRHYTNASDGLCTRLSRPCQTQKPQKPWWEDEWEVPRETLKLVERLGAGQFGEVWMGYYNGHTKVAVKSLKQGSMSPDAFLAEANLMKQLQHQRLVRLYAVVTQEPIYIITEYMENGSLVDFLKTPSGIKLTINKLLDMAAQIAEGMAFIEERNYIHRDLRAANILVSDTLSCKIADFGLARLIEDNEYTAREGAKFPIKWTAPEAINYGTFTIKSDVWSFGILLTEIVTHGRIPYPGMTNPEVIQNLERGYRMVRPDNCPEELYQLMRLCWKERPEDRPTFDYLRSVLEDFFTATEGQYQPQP
Compound,IC50 (BTK-WT) [nM],IC50 (LCK) [nM]
"Cc1cc(Nc2nc(N3C[C@H](NC(=O)c4ccc(C5CC5)cc4F)CC[C@@H]3C)cnc2C(N)=O)sn1 [Example D-181, 5-[(2S,5R)-5-(4-cyclopropyl-2-fluorobenzamido)-2-methylpiperidin-1-yl]-3-[(3-methyl-1,2-thiazol-5-yl)amino]pyrazine-2-carboxamide]",≤ 10,100 to 1000
"C[C@@H]1[C@H](NC(=O)N(C)C)CCCN1c1cnc(C(N)=O)c(Nc2ccc(N3CCN(C4CCCC4)CC3)cc2)n1 [Example D-182, 3-{[4-(4-cyclopentylpiperazin-1-yl)phenyl]amino}-5-[(2R,3R)-3-[(dimethylcarbamoyl)amino]-2-methylpiperidin-1-yl]pyrazine-2-carboxamide]",≤ 10,10 to 100
"C[C@@H]1[C@H](NC(=O)c2ccc(N(C)C)cc2)CCCN1c1cnc(C(N)=O)c(Nc2ccc(C3(C)CCN(C4CCCC4)CC3)cc2)n1 [Example D-183, 3-{[4-(1-cyclopentyl-4-methylpiperidin-4-yl)phenyl]amino}-5-[(2R,3R)-3-[4-(dimethylamino)benzamido]-2-methylpiperidin-1-yl]pyrazine-2-carboxamide]",≤ 10,10 to 100
"Cn1cc(Nc2nc(N3CCC[C@@H](n4ccc5cc(C6CC6)ccc5c4=O)C3)cnc2C(N)=O)cn1 [Example D-184, 5-[(3R)-3-(6-cyclopropyl-1-oxo-1,2-dihydroisoquinolin-2-yl)piperidin-1-yl]-3-[(1-methyl-1H-pyrazol-4-yl)amino]pyrazine-2-carboxamide]",≤ 10,1000 to 10000
"C[C@@H]1[C@H](NC(=O)c2ccc(C3CC3)cc2)CCCN1c1cnc(C(N)=O)c(Nc2cnn(C3CCN(C)CC3)c2)n1 [Example D-185, 5-[(2R,3R)-3-(4-cyclopropylbenzamido)-2-methylpiperidin-1-yl]-3-{[1-(1-methylpiperidin-4-yl)-1H-pyrazol-4-yl]amino}pyrazine-2-carboxamide]",≤ 10,10 to 100
"Cc1cc(Nc2nc(N3CCC[C@@H](c4ncc(-c5ccc(C6CC6)cc5)[nH]4)[C@H]3C)cnc2C(N)=O)sn1 [Example D-186, 5-[(2R,3R)-3-[5-(4-cyclopropylphenyl)-1H-imidazol-2-yl]-2-methylpiperidin-1-yl]-3-[(3-methyl-1,2-thiazol-5-yl)amino]pyrazine-2-carboxamide]",10 to 100,1000 to 10000
"C[C@@H]1[C@H](NC(=O)c2ccc(C3CC3)cc2)CCCN1c1cnc(C(N)=O)c(Nc2cnn(CCN(C)C)c2)n1 [Example D-187, 5-[(2R,3R)-3-(4-cyclopropylbenzamido)-2-methylpiperidin-1-yl]-3-({1-[2-(dimethylamino)ethyl]-1H-pyrazol-4-yl}amino)pyrazine-2-carboxamide]",10 to 100,100 to 1000
"C[C@@H]1[C@H](NC(=O)c2ccc(C3CC3)cn2)CCCN1c1cnc(C(N)=O)c(Nc2ccc(N3CCN(C)CC3)cc2)n1 [Example D-188, 5-[(2R,3R)-3-(5-cyclopropylpyridine-2-amido)-2-methylpiperidin-1-yl]-3-{[4-(4-methylpiperazin-1-yl)phenyl]amino}pyrazine-2-carboxamide]",≤ 10,100 to 1000
"Cn1cc(Nc2nc(N3C[C@@H](NC(=O)c4ccc(C5CC5)cc4)CC(F)(F)C3)cnc2C(N)=O)cn1 [Example D-189, 5-[(5S)-5-(4-cyclopropylbenzamido)-3,3-difluoropiperidin-1-yl]-3-[(1-methyl-1H-pyrazol-4-yl)amino]pyrazine-2-carboxamide]",100 to 1000,> 10000
"Cn1cc(Nc2nc(N3CCC[C@@H](NC(=O)c4ccc(C5CC5)cc4)C3)cnc2C(N)=O)cn1 [Example D-191, 5-[(3R)-3-(4-cyclopropylbenzamido)piperidin-1-yl]-3-[(1-methyl-1H-pyrazol-4-yl)amino]pyrazine-2-carboxamide]",10 to 100,100 to 1000
"Cn1cc(Nc2nc(N3CCC(F)(F)[C@H](NC(=O)c4ccc(C5CC5)cc4)C3)cnc2C(N)=O)cn1 [Example D-192, 5-[(3R)-3-(4-cyclopropylbenzamido)-4,4-difluoropiperidin-1-yl]-3-[(1-methyl-1H-pyrazol-4-yl)amino]pyrazine-2-carboxamide]",1000 to 10000,> 10000
"Cn1cc(Nc2nc(N3CCC(F)(F)[C@@H](NC(=O)c4ccc(C5CC5)cc4)C3)cnc2C(N)=O)cn1 [Example D-193, 5-[(3S)-3-(4-cyclopropylbenzamido)-4,4-difluoropiperidin-1-yl]-3-[(1-methylpyrazol-4-yl)amino]pyrazine-2-carboxamide]",10 to 100,> 10000
"C[C@@H]1[C@H](NC(=O)c2ccc(C(C)(C)O)cc2)CCCN1c1cnc(C(N)=O)c(Nc2cnn(C)c2)n1 [Example D-194, 5-[(2R,3R)-3-[4-(2-hydroxypropan-2-yl)benzamido]-2-methylpiperidin-1-yl]-3-[(1-methyl-1H-pyrazol-4-yl)amino]pyrazine-2-carboxamide]",≤ 10,100 to 1000
"Cn1cc(Nc2nc(N3CCC[C@@H](NC(=O)c4ccc(C5CC5)cc4)C3)nnc2C(N)=O)cn1 [Example D-195, 3-[(3R)-3-(4-cyclopropylbenzamido)piperidin-1-yl]-5-[(1-methyl-1H-pyrazol-4-yl)amino]-1,2,4-triazine-6-carboxamide]",≤ 10,100 to 1000
"C[C@@H]1[C@H](NC(=O)c2ccc(N(C)C)cc2)CCCN1c1cnc(C(N)=O)c(Nc2ccc(N3CCN(C)CC3)cc2)n1 [Example D-196, 5-[(2R,3R)-3-[4-(dimethylamino)benzamido]-2-methylpiperidin-1-yl]-3-{[4-(4-methylpiperazin-1-yl)phenyl]amino}pyrazine-2-carboxamide]",≤ 10,10 to 100
"CC(C)c1ccc(C(=O)N[C@@H]2CCCN(c3cnc(C(N)=O)c(Nc4cnn(C)c4)n3)[C@@H]2C)cc1 [Example D-197, 3-[(1-methyl-1H-pyrazol-4-yl)amino]-5-[(2R,3R)-2-methyl-3-[4-(propan-2-yl)benzamido]piperidin-1-yl]pyrazine-2-carboxamide]",≤ 10,100 to 1000
"C[C@@H]1[C@H](NC(=O)c2ncc(C3CC3)cn2)CCCN1c1cnc(C(N)=O)c(Nc2cnn(C)c2)n1 [Example D-198, 5-[(2R,3R)-3-(5-cyclopropylpyrimidine-2-amido)-2-methylpiperidin-1-yl]-3-[(1-methyl-1H-pyrazol-4-yl)amino]pyrazine-2-carboxamide]",≤ 10,10 to 100
"C[C@@H]1[C@H](NC(=O)c2ccc(C3CC3)nc2)CCCN1c1cnc(C(N)=O)c(Nc2ccc(N3CCN(C)CC3)cc2)n1 [Example D-203, 5-[(2R,3R)-3-(6-cyclopropylpyridine-3-amido)-2-methylpiperidin-1-yl]-3-{[4-(4-methylpiperazin-1-yl)phenyl]amino}pyrazine-2-carboxamide]",≤ 10,10 to 100
"C[C@@H]1[C@H](NC(=O)c2cnc(C3CC3)cn2)CCCN1c1cnc(C(N)=O)c(Nc2cnn(C)c2)n1 [Example D-205, 5-[(2R,3R)-3-(5-cyclopropylpyrazine-2-amido)-2-methylpiperidin-1-yl]-3-[(1-methyl-1H-pyrazol-4-yl)amino]pyrazine-2-carboxamide]",≤ 10,10 to 100
"Cn1cc(Nc2nc(N3CCC[C@@H](n4ccc5cc(C6CC6)ccc5c4=O)C3)nnc2C(N)=O)cn1 [Example D-206, 3-[(3R)-3-(6-cyclopropyl-1-oxo-1,2-dihydroisoquinolin-2-yl)piperidin-1-yl]-5-[(1-methyl-1H-pyrazol-4-yl)amino]-1,2,4-triazine-6-carboxamide]",≤ 10,10 to 100
"C[C@@H]1[C@H](NC(=O)c2ccc(C3CC3)cc2)CCCN1c1cnc(C(N)=O)c(Nc2cnn(C)c2)c1 [Example D-207, 5-[(2R,3R)-3-(4-cyclopropylbenzamido)-2-methylpiperidin-1-yl]-3-[(1-methyl-1H-pyrazol-4-yl)amino]pyridine-2-carboxamide]",≤ 10,100 to 1000
"C[C@@H]1[C@H](NC(=O)c2ccc(C(C)(C)C)cn2)CCCN1c1cnc(C(N)=O)c(Nc2cnn(C)c2)n1 [Example D-208, 5-[(2R,3R)-3-(5-tert-butylpyridine-2-amido)-2-methylpiperidin-1-yl]-3-[(1-methyl-1H-pyrazol-4-yl)amino]pyrazine-2-carboxamide]",≤ 10,100 to 1000
"CN1CCN([C@@H]2CCCN(c3cnc(C(N)=O)c(Nc4cnn(C)c4)n3)C2)C1=O [Example D-209, 3-[(1-methyl-1H-pyrazol-4-yl)amino]-5-[(3R)-3-(3-methyl-2-oxoimidazolidin-1-yl)piperidin-1-yl]pyrazine-2-carboxamide]",10 to 100,100 to 1000
"Cc1ncc(Nc2nc(N3CCC[C@@H](NC(=O)c4ccc(C5CC5)cc4)[C@H]3C)cnc2C(N)=O)s1 [Example D-210, 5-[(2R,3R)-3-(4-cyclopropylbenzamido)-2-methylpiperidin-1-yl]-3-[(2-methyl-1,3-thiazol-5-yl)amino]pyrazine-2-carboxamide]",≤ 10,100 to 1000
"C[C@@H]1[C@H](NC(=O)c2ccc(C3CC3)cc2)CCCN1c1cnc(C(N)=O)c(Nc2ccc(OC3CCN4CCCC4C3)cc2)n1 (stereo partly drawn) [Example D-211, 5-[(2R,3R)-3-(4-cyclopropylbenzamido)-2-methylpiperidin-1-yl]-3-{[4-(octahydroindolizin-7-yloxy)phenyl]amino}pyrazine-2-carboxamide]",≤ 10,10 to 100
"C[C@@H]1[C@H](NC(=O)c2ccc(C3(O)CCCC3)cc2)CCCN1c1cnc(C(N)=O)c(Nc2cnn(C)c2)n1 [Example D-212, 5-[(2R,3R)-3-[4-(1-hydroxycyclopentyl)benzamido]-2-methylpiperidin-1-yl]-3-[(1-methyl-1H-pyrazol-4-yl)amino]pyrazine-2-carboxamide]",≤ 10,100 to 1000
